These results are taken from patent publication US10870713B2, “Procatalyst and polymerization process using the same” (Dow Global Technologies LLC, priority 2015, dated 2020).

Data set [1] in a line: Batch polymerization of ethylene and 1-octene in a Parr reactor (catalyst efficiency). Conditions: reactor 147° C.; ISOPAR-E 1320 g; 1-octene 250 g; ethylene 410 psi; 10 min; procatalyst:activator 1:1.2; procatalyst:MMAO 1:50. From the text:
The procatalysts shown above were used to polymerize ethylene and 1-octene in a Parr batch polymerization reactor. All feeds were passed through columns of alumina and Q-5 catalyst (available from Engelhard Chemicals Inc.) prior to introduction into the polymerization reactor. Procatalyst and activator solutions were handled in a glove box under nitrogen atmosphere prior to addition to the polymerization reactor.
Table 2 illustrates the batch polymerizations results for each of C1 and 11-12 under the following conditions: reactor temperature: 147° C.; ISOPAR-E: 1320 g; 1-octene: 250 g; ethylene pressure: 410 psi; Run time: 10 min; procatalyst to activator ratio is 1:1.2; activator=[HNMe(C18H37)2][B(C6F5)4]; procatalyst to MMAO ratio is 1:50; […]
The catalyst efficiency is calculated by dividing the number of grams of the polyolefin copolymer prepared by the total number of grams of metal M of ingredient (a) employed (i.e., metal M of the at least one metal-ligand complex of formula (I)) (i.e., catalyst efficiency=g polyolefin copolymer prepared/g metal M of metal-ligand complex(es) of formula (I) employed).

A short description of data set [2]: Solubility testing of procatalysts in aliphatic hydrocarbon solvents. It is filed as physicochemical. On the procedure:
Hexanes (10 mL) was added to this material and the solution was allowed to settle overnight. 5.03 grams of the clear supernatant hexanes was removed from the vial, then the hexanes was removed from this clear solution to leave behind 205 mg of product.
Hexanes (10 mL) was added to this material and the solution was allowed to settle overnight. 5.1 grams of the clear supernatant hexanes was removed from the vial, then the hexanes was removed from this clear solution to leave behind 140 mg of product.
About 950 mg of pre-catalyst used. Added ISOPAR-E (40 mL). Swirled solution then allowed insoluble material to settle to the bottom of the jar overnight. Removed 5.06 grams of ISOPAR-E solution into a vial. Solvent was removed and 120 mg of pre-catalyst was obtained.
To 72.3 mg of the solid in a vial was added 0.9 mL of ISOPAR E. The solution was stirred for about 1 h. The mixture was filtered and the solution was weighted (0.2934 g).
A 20-mL vial was charged with 82.0 mg of the Hf-complex and 0.8 mL of ISOPAR E. The mixture was stirred for 2 h and it was filtered via syringe filter. The colorless solution was weight and then concentrated under vacuum for 3 h. The white solid was weight to obtained 0.0217 g for a 6.2 w/w % solubility.
To the solid was added 0.2198 g of ISOPAR E and stirred for 1 hour. The solid completely dissolved to indicate a 9.5 wt % solubility in ISOPAR E.
To the Hf-complex was added 4 mL of hexane, and the solution was stirred for 4 hours. The solution was filtered via syringe to provide a weight of 2.0638 g. This solution was concentrated under vacuum to afford 0.3228 g of the solid 17 indicative of a 15.6 wt % solubility in hexanes. […]
Solubility was determined by either first forming a saturated solution of the procatalyst in one or more of the solvents as shown in Table 1. […] A portion of the clear supernatant is removed, and the mass is recorded. […] The mass of the resulting procatalyst that was in solution is recorded, allowing for calculation of a w/w % solubility in the indicated solvent. […]

Consider `Cc1cc2c(c(-n3c4ccccc4c4ccccc43)c1)[O][Hf-2]13([CH3])([CH3])[O]c4c(cc(C)cc4-n4c5ccccc5c5ccccc54)-c4ccccc4[O+]1C[C@@H]1CCCCC1C[O+]3c1ccccc1-2` (stereo partly shown) [Procatalyst C1], for which the Efficiency in data set [1] is on record as 826,377 g polyolefin copolymer prepared/g metal M. Besides, the “wt/wt % Solubility, ISOPAR-E” value in data set [2] (solvent ISOPAR-E) came out at 1.2 wt/wt %. Moreover, the “wt/wt % Solubility, Hexanes” value in data set [2] (solvent hexanes) was determined as 0.5 wt/wt %. For the same molecule, the “wt/wt % Solubility, Methylcyclohexane” value in data set [2] (solvent methylcyclohexane) stood at 1.7 wt/wt %.
